# Experimental data from article PMC6368337, “GluClR-mediated inhibitory postsynaptic currents reveal targets for ivermectin and potential mechanisms of ivermectin resistance” (PLoS Pathogens, 2019).
# What was measured:
# [1] = target: α (avr-14b) GluClRs (Haemonchus contortus, UniProt O46124); assay: Two-electrode voltage clamp in oocytes, α GluClRs; type: cell-based, H. contortus
# Description: (§1) cDNAs encoding the α (avr-14b) (pcDNA 3.1+) or β (pUNIV) GluClR subunits of H. contortus were nuclear injected into oocytes (NASCO, WI USA) or transfected into HEK293AD cells (CellBank Australia) using a calcium phosphate-DNA co-precipitate method. Synapse formation between neurons and HEK293 cells was promoted by co-transfecting neuroligin 2A or 1B and the cDNA encoding CD4 surface antigen was also added to the transfection mixture so as to identify transfected cells. The oocytes and HEK cells were used for experiments 2–3 days after the introduction of the cDNAs. All experiments were done at room temperature (22 ± 1°C).
# (§2) Xenopus laevis oocytes were harvested by surgical incision. The oocytes were then defolliculated with 1.5 mg/ml collagenase for 2 hours. Free oocytes were rinsed with calcium-free OR-2 solution containing (in mM) 82.5 NaCl, 2 KCl, 1 MgCl2, 5 HEPES, pH 7.4 and mature stage V or VI oocytes were isolated for experiments. The DNAs coding for α and β subunits were nuclear injected into the oocytes using a Nanoliter 2000 microinjector (WPI Inc) at a ratio of (α:β), 1:0, 0:1, 1:1 and 1:50. The total amount of injected DNA in all combinations was 400 ng ml^−1, including the 1:50 (α:β) combination (8 ng of DNA encoding the α and 392 ng of DNA encoding β subunits). Injected oocytes were incubated in ND96 storage solution (in mM) 96 NaCl, 2 KCl, 1 MgCl2.6H2O, 1.8 CaCl2, 5 HEPES, 50 μg ml^−1 gentamicin, 2.5 sodium pyruvate, 0.5 theophylline, pH 7.4 at 16°C for 2–3 days before experiment.
# (§3) For the two-electrode voltage clamp recordings, each oocyte was secured in a cell bath that was continually perfused with ND96 recording solution (ND96 storage solution without pyruvate, theophylline and gentamicin). […] The two microelectrodes contained 3 M KCl and had resistances of 0.2–2 MΩ. Recordings were done using Clampex 10.2 software (Molecular Devices) at a clamped voltage of −40 mV. Currents were low-pass filtered at 200 Hz, sampled at 2 kHz using a Gene Clamp 500B amplifier and digitised by a Digidata 1440A interface. The IVM (IVM B1a) concentration-response experiments were standardised by using an application protocol that consisted of applying increasing concentrations of IVM for, respectively, 3 min, 3 min, 3 min, 2 min, 1 min, 1 min and 0.5 min.
# (§4) Group data were analysed in SigmaPlot 13.0 using one-way ANOVAs, where p < 0.05 was taken as the significance threshold and expressed as mean ± SEM. Tests for normally distributed data are built into the SigmaPlot software. Confocal images were captured and analysed with Zen 2012 SP2 (Zeiss) software. Oocyte concentration-response data were fit to a Hill equation to obtain an EC50 and Hill co-efficient for each oocyte recording. These parameters were then averaged across multiple oocyte experiments of the same type. Single channel recordings were analysed in QuB software. […] The selected critical times eliminated periods of receptor desensitisation while retaining singe receptor active periods. Mean active period duration and intra-activation open probability was estimated from each patch. Group means were obtained by averaging across multiple patches for each recording condition.
# [2] = target: αβ (1:50) GluClRs (Haemonchus contortus, UniProt O46124+P91730); assay: Two-electrode voltage clamp in oocytes, αβ (1:50) GluClRs; type: cell-based, H. contortus
# Sequence of αβ (1:50) GluClRs (O46124 entry or part of it): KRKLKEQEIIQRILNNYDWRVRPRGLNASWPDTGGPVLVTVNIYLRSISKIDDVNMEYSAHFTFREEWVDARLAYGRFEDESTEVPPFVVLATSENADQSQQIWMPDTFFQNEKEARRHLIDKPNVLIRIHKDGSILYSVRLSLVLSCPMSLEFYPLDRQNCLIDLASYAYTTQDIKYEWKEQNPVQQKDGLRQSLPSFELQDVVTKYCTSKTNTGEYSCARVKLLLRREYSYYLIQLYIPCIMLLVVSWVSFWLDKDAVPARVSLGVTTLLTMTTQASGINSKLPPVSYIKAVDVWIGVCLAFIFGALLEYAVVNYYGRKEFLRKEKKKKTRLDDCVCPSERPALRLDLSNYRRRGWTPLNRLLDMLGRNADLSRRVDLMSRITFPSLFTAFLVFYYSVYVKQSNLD
# Sequence of αβ (1:50) GluClRs (P91730 19-432): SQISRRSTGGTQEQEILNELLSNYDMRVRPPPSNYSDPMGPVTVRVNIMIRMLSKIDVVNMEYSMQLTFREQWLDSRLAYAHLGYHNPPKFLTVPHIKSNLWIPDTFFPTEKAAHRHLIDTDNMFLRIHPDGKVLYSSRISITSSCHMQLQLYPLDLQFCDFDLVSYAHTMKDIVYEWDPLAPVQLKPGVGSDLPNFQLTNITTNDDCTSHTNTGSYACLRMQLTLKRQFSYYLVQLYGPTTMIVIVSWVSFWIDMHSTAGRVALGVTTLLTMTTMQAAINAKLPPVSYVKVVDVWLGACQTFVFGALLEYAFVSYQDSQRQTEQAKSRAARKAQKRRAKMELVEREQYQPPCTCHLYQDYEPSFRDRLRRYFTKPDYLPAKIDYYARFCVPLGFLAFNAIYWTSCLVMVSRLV
# Description: as §1, §2, §3, §4
# [3] = test system: Untransfected HEK293 cells; assay: Membrane partitioning, time-lapse fluorescence
# Description: Two types of experiments were conducted with IVM-bdpy. The first was aimed at monitoring the time-course of membrane accumulation. Untransfected HEK293 cells were incubated in extracellular solution containing 500 nM IVM-bdpy and time-lapse images were taken over a period of 30 min (Fig 8A). The change in total membrane fluorescence averaged from 5 repeat experiments was then plotted against time and fitted to a standard exponential function (Fig 8B). In a control experiment, the corresponding accumulation rate was also determined for bdpy. To obtain the net membrane partitioning time-course for IVM-1, the data for the bdpy alone was subtracted from the data obtained for IVM-bdpy (Fig 8B). The time constants for the three plots were 6.5 min for the IVM-bdpy, 8.2 min for the bdpy fluorophore and 6.0 min for IVM-1. As the lipophilic properties of IVM and IVM-1 are similar (logPs of 5.4 and 5.1, respectively), we infer this analysis quantitatively reflects the membrane partitioning properties of IVM. […] It should be noted, however, that the IVM-bdpy experiment was done using a 100-fold higher concentration of drug in un-transfected cells and represents passive membrane accumulation, whereas the current plateau involved IVM binding to and activating receptors.
# Membrane partitioning and FRAP experiments were performed on an LSM 710 inverted 2-photon confocal microscope equipped with a 40X water immersion objective lens (1.2 NA/280 μM WD/0.208 μM/pixel and a GFP/Alexa 488 filter set. Untransfected HEK293 cells at a confluency of 50–75% were plated onto 35-mm glass bottom dishes one day prior to experiments. The IVM-bdpy fluorophore was dissolved in 100% DMSO and stored at ‐20°C at a concentration of 24 mM.
# A Mai Tai eHP 2-photon laser/760-1040 nm was used as an excitation source (power at 920 nm) for the FRAP experiments. The laser and bleaching power were set to 7% and 75% respectively. Membrane partitioning images were taken for 35 min at 0.5 Hz after replacing the cell medium (extracellular solution) with one containing the IVM-bdpy probe at a concentration of 500 nM. FRAP images were taken at a frequency of 0.5 Hz for 10 min after a 30 min equilibration period in 500 nM IVM-bdpy.
# [4] = Lipophilicity (logP); type: physicochemical
# [5] = target: T1, αβ (1:1) GluClRs (Haemonchus contortus, UniProt O46124+P91730); assay: Two-electrode voltage clamp in oocytes, αβ (1:1) GluClRs; type: cell-based, H. contortus; conditions: glutamate-gated current, oocytes, 1:1
# T1 sequence (P91730 19-432): as above
# T1 sequence (O46124 entry or part of it): as the sequence (O46124 entry or part of it) above
# Description: as §1, §2, §3
# Group data were analysed in SigmaPlot 13.0 using one-way ANOVAs, where p < 0.05 was taken as the significance threshold and expressed as mean ± SEM. Tests for normally distributed data are built into the SigmaPlot software. Confocal images were captured and analysed with Zen 2012 SP2 (Zeiss) software. Oocyte concentration-response data were fit to a Hill equation to obtain an EC50 and Hill co-efficient for each oocyte recording. […] Single channel recordings were analysed in QuB software. […]
# [6] = target: T2, β GluClRs (Haemonchus contortus, UniProt P91730); assay: Two-electrode voltage clamp in oocytes, β GluClRs; type: cell-based, H. contortus; conditions: glutamate-gated current, oocytes
# T2 sequence (P91730 19-432): as the sequence (P91730 19-432) above
# Description: as §1
# Xenopus laevis oocytes were harvested by surgical incision. The oocytes were then defolliculated with 1.5 mg/ml collagenase for 2 hours. Free oocytes were rinsed with calcium-free OR-2 solution containing (in mM) 82.5 NaCl, 2 KCl, 1 MgCl2, 5 HEPES, pH 7.4 and mature stage V or VI oocytes were isolated for experiments. The DNAs coding for α and β subunits were nuclear injected into the oocytes using a Nanoliter 2000 microinjector (WPI Inc) at a ratio of (α:β), 1:0, 0:1, 1:1 and 1:50. […]
# Group data were analysed in SigmaPlot 13.0 using one-way ANOVAs, where p < 0.05 was taken as the significance threshold and expressed as mean ± SEM. […] Confocal images were captured and analysed with Zen 2012 SP2 (Zeiss) software. […] Single channel recordings were analysed in QuB software. […]
# [7] = target: T1, αβ (1:1) GluClRs; assay: Single channel recording, outside-out patches, αβ (1:1) GluClRs; type: cell-based, H. contortus; conditions: for mean active period duration: −70 mV
# From the text: (§5) To explore whether a similar mechanism applies to β-containing GluClRs, we recorded single receptor currents in excised patches from cells transfected with either the α and β subunits (1:1) or the β subunit alone. […] By contrast, patches from cells transfected with the β subunit alone invariably opened to an amplitude of 0.4 pA (Fig 6C). Amplitude histograms confirmed two amplitude levels for αβ GluClRs and a single amplitude for the β GluClRs (Fig 6D). […] We infer that the αβ GluClRs that open to 0.7 pA likely contain a greater proportion of β subunits. This is consistent with β GluClRs having the smallest amplitude and α GluClRs having the greatest amplitude (1.8 pA) under similar recording conditions. The calculated conductance values for the corresponding amplitudes for αβ GluClRs was 15.2 pS and 8.9 pS and for the β GluClRs was 5.1 pS.
# (§6) Single-channel currents were recorded from outside-out excised patches at a clamped potential of −70 mV. The single channel conductance was calculated by dividing the mean current by the net driving force at a clamped potential of ‐70 mV, after accounting for reversal and liquid junction potentials. Excised patches were continuously perfused via a gravity-fed double-barrelled glass tube, which contained extracellular bath solution containing (in mM), 140 NaCl, 5 KCl, 1 MgCl2, 2 CaCl2, 10 HEPES, and 10 D-glucose and titrated to pH 7.4. Glutamate and IVM were dissolved in this extracellular solution. Recording electrodes were pulled from borosilicate glass (G150F-3; Warner Instruments), coated with a silicone elastomer (Sylgard-184; Dow Corning) and heat-polished to a final tip resistance of 4–15 MΩ when filled with an intracellular solution containing (in mM) 145 CsCl, 2 MgCl2, 2 CaCl2, 10 HEPES, and 5 EGTA, pH 7.4. […] A 10 mM stock of IVM (Sigma-Aldrich) was dissolved in 100% DMSO and kept frozen at ‐20°C. Fresh working stocks of IVM at 5 nM were prepared by dissolving the appropriate quantity directly in extracellular solution. 100% DMSO when dissolved in extracellular solution alone at the same concentration as was present in working solutions containing 5 nM IVM had no effect on patches excised from cells transfected with GluClRs or from untransfected cells.
# (§7) Currents were recorded using an Axopatch 200B amplifier (Molecular Devices), filtered at 5 kHz and digitized at 20 kHz using Clampex (pClamp 10 suite, Molecular Devices) via a Digidata 1440A digitizer.
# (§8) Group data were analysed in SigmaPlot 13.0 using one-way ANOVAs, where p < 0.05 was taken as the significance threshold and expressed as mean ± SEM. Tests for normally distributed data are built into the SigmaPlot software. Confocal images were captured and analysed with Zen 2012 SP2 (Zeiss) software. Oocyte concentration-response data were fit to a Hill equation to obtain an EC50 and Hill co-efficient for each oocyte recording. These parameters were then averaged across multiple oocyte experiments of the same type. Single channel recordings were analysed in QuB software. […] Patches yielded between 30–250 individual active periods. […] The selected critical times eliminated periods of receptor desensitisation while retaining singe receptor active periods. Mean active period duration and intra-activation open probability was estimated from each patch. Group means were obtained by averaging across multiple patches for each recording condition.
# [8] = target: T2, β GluClRs; assay: Single channel recording, outside-out patches, β GluClRs; type: cell-based, H. contortus
# From the text: as §5, §6, §7, §8
# Sequence of α (avr-14b) GluClRs (O46124 entry or part of it): as the sequence (O46124 entry or part of it) above
SMILES,"efficacy (maximal current normalised to saturating glutamate) compared to IVM ([1]; 30 nM, normalised to 5 mM glutamate)","efficacy (maximal current normalised to saturating glutamate) compared to IVM ([2]; 30 nM, normalised to 5 mM glutamate, αβ 1:50)","differential efficacy between α and αβ (1:50) GluClRs ([2]; 30 nM, α versus αβ (1:50))",net membrane partitioning time constant ([3]; bdpy data subtracted from IVM-bdpy data) [min],time to plateau of membrane partitioning ([3]; subtraction plot (IVM-bdpy minus bdpy)) [min],logP [4],"maximal current ([1]; glutamate-gated current, oocytes) [μA]",maximal current [5] [μA],"maximal current ([2]; glutamate-gated current, oocytes, 1:50) [μA]",maximal current [6] [μA],intra-activation open probability (PO) ([7]; 2 μM glutamate),"mean active period duration ([7]; 2 μM glutamate, both stoichiometries pooled) [ms]",intra-activation open probability (PO) ([7]; 3 mM glutamate),"mean active period duration ([7]; 3 mM glutamate, pooled) [ms]",intra-activation open probability (PO) ([8]; 2 μM glutamate),"mean active period duration ([8]; 2 μM glutamate, −70 mV) [ms]",intra-activation open probability (PO) ([8]; 3 mM glutamate),mean active period duration ([8]; 3 mM glutamate) [ms]
CC[C@H](C)[C@H]1O[C@]2(CC[C@@H]1C)C[C@@H]1C[C@@H](C/C=C(\C)[C@@H](O)[C@@H](C)/C=C/C=C3\CO[C@@H]4[C@H](O)C(C)=C[C@@H](C(=O)O1)[C@]34O)O2 [IVM-1],significantly less efficacious than IVM,preservation of efficacy,retained differential efficacy,6.0,18 to 20,5.1,,,,,,,,,,,,
"N[C@@H](CCC(=O)O)C(=O)O [Glutamate, L-glutamate]",,,,,,,3.7 ± 0.8,2.0 ± 0.4,2.2 ± 0.4,1.9 ± 0.3,0.54 ± 0.06,40 ± 10,0.83 ± 0.03,146 ± 15,0.63 ± 0.07,7.5 ± 1.8,0.70 ± 0.11,164 ± 31
